US20100105746A1, “METHOD FOR TREATING METABOLIC DISEASES” (priority 2008, published 2010)
“And” between values parts separate entries of the source, which are not always exact repeats. Identical values can stand only once.

Assays:
[1] = Body weight, food consumption and liver weight in diet-induced obese (DIO) rat model (Example 4); format: in vivo
Procedure: Male Sprague-Dawley rats were acclimated for 7 weeks on a high-fat diet before commencement of dose administration, and maintained on the same diet throughout the subsequent dosing period of 23 days. The high-fat diet (D12492 commercially available from Research Diets, Inc., New Brunswick, N.J.) was one in which at least 60% of calories are derived from fat.
Dose levels of gemfibrozil (50 mg/kg) and sibutramine (10 mg/kg) were selected based on published reports. All treatments were administered once daily by oral gavage in 10 ml vehicle. A vehicle-only control was also administered. Each treatment group consisted of 10 animals.
Body weight of each animal was measured weekly during the 7-week acclimation period and five times weekly during the 23-day dosing period. Food consumption was recorded twice weekly during the 7-week acclimation period and five times weekly during the 23-day dosing period.
Animals were sacrificed and liver weights measured at conclusion of the study.

[2] = Oral glucose tolerance test (OGTT) in rats with diet-induced obesity (Example 5); format: in vivo, rat; settings: for Glucose concentration excursion (baseline to maximum) / Glucose concentration maximum: OGTT day 21, DIO rats; for Time to maximum (glucose concentration): OGTT day 21, dextrose 2 g/kg
Procedure: As part of the study described in Example 4, an oral glucose tolerance test (OGTT) was performed on day 21 of the dosing period, after a 2-4 hour fast. Dextrose (2 g/kg) was administered by oral gavage. Blood for glucose analysis was collected at 0, 15, 30, 60, 120 and 180 minutes after dextrose administration. At each time point, 0.25 ml whole blood was collected in EDTA, processed to plasma, and analyzed for blood glucose with a low-volume glucose kit.

[3] = Terminal fasting serum glucose and lipids in rats with diet-induced obesity (Example 6); format: in vivo, rat; settings: DIO rats, vs vehicle control
Procedure: As part of the study described in Example 4, a terminal blood sample (0.5 ml whole blood in EDTA) was collected on day 24, after a 12-18 hour fast. Whole blood was processed to serum, and analyzed for glucose, total cholesterol, HDL cholesterol, free fatty acids and total triglycerides.

[4] = Plasma lipids, lipoproteins and liver weight in normal rats versus fibrates (Example 8); format: in vivo, rat; settings: once daily p.o. 7 days, approximation
Source text: The study design was based on the protocols used in Examples 1-3. Male Sprague-Dawley rats were provided normal chow ad libitum, both before and during the study period. […] Six rats were assigned to each treatment group (8 to the vehicle control). The study terminated on the day following administration of the seventh dose (day 8), with terminal blood collected for plasma lipid and lipoprotein analyses including LC-MS-based determination of lipid profiles, total and free cholesterol analyses, and lipoprotein cholesterol determinations (VLDL, LDL and HDL).
In order to elucidate the impact of romazarit on plasma lipoproteins, an ultraviolet (UV) size exclusion chromatography (SEC) system was used to separate plasma into broad lipoprotein-containing fractions that were based on relative retention times of human VLDL (very low density lipoprotein), LDL (low density lipoprotein), and HDL (high density lipoprotein) standards. These fractions were collected for cholesterol assays and the UV chromatograms were integrated to provide relative quantitation of the three lipoprotein types. It is important to note that since the UV absorbance measurement is not specific for lipoproteins and may also derive from other plasma constituents that co-elute with a particular lipoprotein, the relative quantitation data reported here is an approximation. The HDL fraction in particular may have included such co-eluting species, as evidenced by the relatively high integrated area values for this fraction.

[5] = DIO rats, 10 mg/kg once daily p.o.

Structure (SMILES): CC(C)CC(N(C)C)C1(c2ccc(Cl)cc2)CCC1 (stereo not shown) [sibutramine]
- day by which food consumption returned to levels comparable to the vehicle control [1, 5]: ≤ 8 days
- time of minimum food consumption [1, 5]: ≤ 2 days
- body weight ([1]; DIO rats, 10 mg/kg once daily p.o., 23 days): significant weight loss
- liver weight ([1]; DIO rats, 10 mg/kg once daily p.o., conclusion of the study): No increase in liver weight
- Glucose concentration baseline ([2]; OGTT day 21, 0 minutes, DIO rats, 10 mg/kg): 126.9 mg/dL
- Glucose concentration excursion (baseline to maximum) ([2]; 10 mg/kg): 74.4 mg/dL
- Glucose concentration maximum ([2]; 10 mg/kg): 201.3 mg/dL
- Time to maximum (glucose concentration) ([2]; DIO rats, 10 mg/kg): 30 min
- terminal (total) cholesterol levels ([3]; day 24, 10 mg/kg once daily): no effect
- terminal HDL levels ([3]; day 24, 10 mg/kg once daily): no significant effect
- terminal fasting levels of triglycerides ([3]; day 24, 10 mg/kg once daily): significant reduction
- terminal fasting serum glucose ([3]; day 24, 10 mg/kg once daily): significant decrease
- terminal levels of free fatty acids ([3]; day 24, 10 mg/kg once daily): no effect

Structure (SMILES): Cc1ccc(C)c(OCCCC(C)(C)C(=O)O)c1 [gemfibrozil]
- food consumption ([1]; DIO rats, 50 mg/kg once daily p.o., dosing period): No significant effect
- body weight ([1]; DIO rats, 50 mg/kg once daily p.o., throughout the dosing period): no significant effect
- liver weight ([1]; rat, in vivo, po, 50 mg/kg): Increased liver weight
- Glucose concentration excursion (baseline to maximum) ([2]; 50 mg/kg): 110.0 mg/dL and 111.0 mg/dL
- Glucose concentration maximum ([2]; 50 mg/kg): 264.9 mg/dL
- Time to maximum (glucose concentration) ([2]; DIO rats, 50 mg/kg): 30 min
- terminal (total) cholesterol levels ([3]; day 24, 50 mg/kg once daily): significantly increased
- terminal HDL levels ([3]; day 24, 50 mg/kg once daily): significantly increased
- terminal fasting levels of triglycerides ([3]; day 24, 50 mg/kg once daily): significant reduction
- terminal fasting serum glucose ([3]; day 24, 50 mg/kg once daily): did not result in a significant decrease
- terminal levels of free fatty acids ([3]; day 24, 50 mg/kg once daily): significant increase
- VLDL (UV size exclusion chromatography, relative quantitation) [4]: similarly significant effect
